In patent US10538521B2, “Pyrimidine derivative having antimalarial activity” (CARNA BIOSCIENCES, INC., priority 2016, dated 2020):

Tests used:
[1] = system: FCR3 strain, a drug sensitive strain of Plasmodium falciparum; experiment: In vitro antimalarial assay (p-LDH, Malstat), FCR3 strain; assay type: cell-based; details: P. falciparum FCR3 (drug sensitive), 72 h culture, p-LDH readout, read-out: Antimalarial activity (IC50 value), Strain FCR3
Excerpt: (§1) For the evaluation of the antimalarial activity of the compound of the present invention, K1 strain, a drug resistant strain of Plasmodium falciparum, and FCR3 strain, a drug sensitive strain thereof, which were generous gift from Professor Kiyoshi Kita of the Graduate School of Medicine and Faculty of Medicine, the University of Tokyo, were used to measure the in vitro antimalarial activity of the compound against those Plasmodium species according to the method established by Otoguro et al. (Otoguro, K., Kohana, A., Manabe, C., Ishiyama, A., Ui, H., Shiomi, K., Yamada, H. & Omura, S.: Potent antimalarial activity of polyether antibiotic, X-206. J. Antibiot., 54: 658-663, (2001)).
(§2) The parasites were grown based on a slightly modified method from the original method reported by Trager and Jensen (Trager, W. and Jensen, J.: Human malaria parasites in continuous culture, Science, 193: 673-677, (1976)), and those which were maintained and sub-cultured by the method were used. More specifically, in a culture dish, erythrocytes infected with the protozoa, which had been sub-cultured using a RPMI 1640 medium to which 10% human plasma had been added and fresh human erythrocytes, were diluted (hematocrit value: 2 to 5%, parasitaemia: 0.25 to 1%), and were cultured at 37° C. in a mixed gas of 3% O2-4% CO2-93% N2, and continuously cultured while changing the medium and adding fresh erythrocytes at 2- or 3-day intervals.
(§3) A drug susceptibility test was performed by modifying the method established by Desjardins et al. (Desjardins, R. E., Canfield, C. J., Haynes, D. E. and Chulay, J. D.: Quantitative assessment of antimalarial activity in vitro by a semiautomated microdilution technique. Antimicrob. Agents Chemother., 16: 710-718 (1979)). More specifically, 190 μL of a suspension of protozoa which had been precultured (hematocrit value: 2%, parasitaemia: 0.5 or 1%) and 10 μL of a solution of a test compound (5% DMSO solution) serially diluted so that the final concentration was 12.5 to 0.0001 μM were put in each well of a 96-well plate, and after mixing, the same was cultured for 72 hours in the above mixed gas.
(§4) For the measurement of the growth of protozoa, the method established by Makler (Makler, M. T., Rise, J. M., Williams, J. A., Bancroft, J. E., Piper, R. C., Gibbins, B. L. and Hinrichs, D. J.: Parasite lactate dehydrogenase as an Assay for Plasmodium falciparum drug sensitivity, Am. J. Med. Hyg., 48: 739-741 (1993)) was modified to colorimetrically determine parasite lactate dehydrogenase (p-LDH) using Malstat reagent (Flow Inc., USA).
(§5) More specifically, 72 hours after the culture, the 96-well plate was directly frozen at −20° C. for 18 hours and melted at 37° C. to hemolyze the protozoan-infected erythrocytes and destroy the protozoa to prepare a crude enzyme solution. 100 μL of Malstat reagent and 20 μL of the crude enzyme solution were added to and mixed in each well of another 96-well plate, and after reacting for 15 minutes at room temperature, 20 μL of a nitroblue tetrazolium 2 mg/mL phenazine ethosulfate 0.1 mg/mL=1:1 solution was added to the respective wells, and reaction was performed in dark conditions at room temperature for 2 hours.
(§6) The absorbance of the blue formazan product formed by the reaction was measured at a measurement wavelength of 655 nm by using a microplate reader (Labsystems, Finland) to colorimetrically determine the growth of the protozoa. The 50% growth inhibitory concentration for the protozoa of the compound (IC50 value) was determined based on the concentration-response curve of the compound.

[2] = system: K1 strain, a drug resistant strain of Plasmodium falciparum; experiment: In vitro antimalarial assay (p-LDH, Malstat), K1 strain; assay type: cell-based; details: P. falciparum K1 (drug resistant), 72 h culture, p-LDH readout, read-out: Antimalarial activity (IC50 value), Strain K1
Excerpt: as §1, §2, §3, §4, §5, §6

SMILES | IC50 [1] [nM] | IC50 [2] [nM]
Cc1nc(Nc2nc(Nc3ccn4ccnc4c3)cc(N3CCOCC3)n2)cc(C2CC2)c1F [Example 53, N2-(4-Cyclopropyl-5-fluoro-6-methylpyridin-2-yl)-N4-(imidazo [1,2-a]pyridin-7-yl)-6-morpholinopyrimidine-2,4-diamine] | 100 to 1000 | 100 to 1000
Cc1cccc(Nc2nc(N)cc(Nc3ccn4ccnc4c3)n2)n1 [Example 54, N4-(Imidazo[1,2-a]pyridin-7-yl)-N2-(6-methylpyridin-2-yl) pyrimidine-2,4,6-triamine] | < 100 | < 100
CC(C)Oc1ccc(Nc2nc(Nc3ccn4ccnc4c3)cc(N3CCCCC3)n2)cn1 [Example 55, N4-(Imidazo[1,2-a]pyridin-7-yl)-N2-(6-isopropoxypyridin-3-yl)-6-(piperidin-1-yl) pyrimidine-2,4-diamine] | 100 to 1000 | 1000 to 10000
CCOc1cc(Nc2ccn3ccnc3c2)nc(Nc2ccc(OC(C)C)nc2)n1 [Example 57, 6-Ethoxy-N4-(Imidazo[1,2-a]pyridin-7-yl)-N2-(6-isopropoxypyridin-3-yl)pyrimidine-2,4-diamine] | 100 to 1000 | 1000 to 10000
Cc1cc(C)nc(Nc2nc(N)cc(Nc3ccn4ccnc4c3)n2)c1 [Example 58, N2-(4,6-dimethylpyridin-2-yl)-N4-(imidazo[1,2-a]pyridin-7-yl)pyrimidine-2,4,6-triamine] | < 100 | < 100
Cc1ccc(Nc2nc(Nc3ccn4ccnc4c3)cc(N3CCOCC3)n2)cn1 [Example 60, N4-(imidazo[1,2-a]pyridin-7-yl)-N2-(6-methylpyridin-3-yl)-6-morpholinopyrimidine-2,4-diamine] | < 100 | < 100
CN(C)CCOc1ccc(Nc2nc(Nc3ccn4ccnc4c3)cc(N3CCOCC3)n2)cn1 [Example 61, N2-(6-(2-(dimethylamino)ethoxy)pyridin-3-yl)-N4-(imidazo[1,2-a]pyridin-7-yl)-6-morpholino-pyrimidine-2,4-diamine] | 100 to 1000 | 1000 to 10000
CCCCOc1ccc(Nc2nc(Nc3ccn4ccnc4c3)cc(N3CCOCC3)n2)cn1 [Example 62, N2-(6-butoxypyridin-3-yl)-N4-(imidazo[1,2-a]pyridin-7-yl)-6-morpholinopyrimidine-2,4-diamine] | 100 to 1000 | 100 to 1000
CC(C)(C)Oc1ccc(Nc2nc(Nc3ccn4ccnc4c3)cc(N3CCOCC3)n2)cn1 [Example 63, N2-(6-(tert-butoxy)pyridin-3-yl)-N4-(imidazo[1,2-a]pyridin-7-yl)-6-morpholinopyrimidine-2,4-diamine] | 100 to 1000 | 100 to 1000
CC(C)COc1ccc(Nc2nc(Nc3ccn4ccnc4c3)cc(N3CCOCC3)n2)cn1 [Example 64, N4-(imidazo[1,2-a]pyridin-7-yl)-N2-(6-isobutoxypyridin-3-yl)-6-morpholinopyrimidine-2,4-diamine] | < 100 | 100 to 1000
CC(C)(C)COc1ccc(Nc2nc(Nc3ccn4ccnc4c3)cc(N3CCOCC3)n2)cn1 [Example 65, N4-(imidazo[1,2-a]pyridin-7-yl)-6-morpholino-N2-(6-(neopentyloxy)pyridin-3-yl)pyrimidine-2,4-diamine] | 100 to 1000 | 100 to 1000
COCCOc1ccc(Nc2nc(Nc3ccn4ccnc4c3)cc(N3CCOCC3)n2)cn1 [Example 66, N4-(imidazo[1,2-a]pyridin-7-yl)-N2-(6-(2-methoxyethoxy)-pyridin-3-yl)-6-morpholino-pyrimidine-2,4-diamine] | 100 to 1000 | 100 to 1000
CC(C)(C)c1ccnc(Nc2nc(Nc3ccn4ccnc4c3)cc(N3CCOCC3)n2)c1 [Example 67, N2-(4-(tert-butyl)pyridin-2-yl)-N4-(imidazo[1,2-a]pyridin-7-yl)-6-morpholinopyrimidine-2,4-diamine] | 100 to 1000 | 100 to 1000
CCCOc1ccc(Nc2nc(Nc3ccn4ccnc4c3)cc(N3CCOCC3)n2)cn1 [Example 69, N4-(imidazo[1,2-a]pyridin-7-yl)-6-morpholino-N2-(6-propoxy-pyridin-3-yl)pyrimidine-2,4-diamine] | < 100 | 100 to 1000
CC(C)c1ccnc(Nc2nc(Nc3ccn4ccnc4c3)cc(N3CCOCC3)n2)c1 [Example 70, N4-(imidazo[1,2-a]pyridin-7-yl)-N2-(4-isopropylpyridin-2-yl)-6-morpholinopyrimidine-2,4-diamine] | < 100 | < 100
CCc1ccnc(Nc2nc(Nc3ccn4ccnc4c3)cc(N3CCCCC3)n2)c1 [Example 71, N2-(4-ethylpyridin-2-yl)-N4-(imidazo[1,2-a]pyridin-7-yl)-6-(piperidin-1-yl)pyrimidine-2,4-diamine] | < 100 | < 100
CC(C)(C)c1ccnc(Nc2nc(Nc3ccn4ccnc4c3)cc(N3CCCCC3)n2)c1 [Example 72, N2-(4-(tert-butyl)pyridin-2-yl)-N4-(imidazo[1,2-a]pyridin-7-yl)-6-(piperidin-1-yl)pyrimidine-2,4-diamine] | 100 to 1000 | 1000 to 10000
CC(C)c1ccnc(Nc2nc(Nc3ccn4ccnc4c3)cc(N3CCCCC3)n2)c1 [Example 73, N4-(imidazo[1,2-a]pyridin-7-yl)-N2-(4-isopropylpyridin-2-yl)-6-(piperidin-1-yl)pyrimidine-2,4-diamine] | 100 to 1000 | 100 to 1000
CCCc1ccnc(Nc2nc(Nc3ccn4ccnc4c3)cc(N3CCOCC3)n2)c1 [Example 74, N4-(imidazo[1,2-a]pyridin-7-yl)-6-morpholino-N2-(4-propylpyridin-2-yl)pyrimidine-2,4-diamine] | < 100 | 100 to 1000
CCCc1ccnc(Nc2nc(Nc3ccn4ccnc4c3)cc(N3CCCCC3)n2)c1 [Example 75, N4-(imidazo[1,2-a]pyridin-7-yl)-6-(piperidin-1-yl)-N2-(4-propylpyridin-2-yl)pyrimidine-2,4-diamine] | < 100 | 100 to 1000
FC(F)(F)COc1ccc(Nc2nc(Nc3ccn4ccnc4c3)cc(N3CCOCC3)n2)cn1 [Example 77, N4-(imidazo[1,2-a]pyridin-7-yl)-6-morpholino-N2-(6-(2,2,2-trifluoroethoxy)pyridin-3-yl) pyrimidine-2,4-diamine] | < 100 | 100 to 1000
FC(F)Oc1ccc(Nc2nc(Nc3ccn4ccnc4c3)cc(N3CCOCC3)n2)cn1 [Example 78, N2-(6-(difluoromethoxy)pyridin-3-yl)-N4-(imidazo[1,2-a]pyridin-7-yl)-6-morpholinopyrimidine-2,4-diamine] | < 100 | 100 to 1000
Cc1ccc(Nc2nc(Nc3ccn4ccnc4c3)cc(N3CCCCC3)n2)cn1 [Example 79, N4-(imidazo[1,2-a]pyridin-7-yl)-N2-(6-methylpyridin-3-yl)-6-(piperidin-1-yl)pyrimidine-2,4-diamine] | 100 to 1000 | 100 to 1000
c1cn2ccc(Nc3cc(N4CCOCC4)nc(Nc4ccc(OC5CCC5)nc4)n3)cc2n1 [Example 80, N2-(6-cyclobutoxypyridin-3-yl)-N4-(imidazo[1,2-a]pyridin-7-yl)-6-morpholinopyrimidine-2,4-diamine] | 100 to 1000 | 100 to 1000
c1cn2ccc(Nc3cc(N4CCOCC4)nc(Nc4ccc(OC5CCCCC5)nc4)n3)cc2n1 [Example 81, N2-(6-(cyclohexyloxy)pyridin-3-yl)-N4-(imidazo[1,2-a]pyridin-7-yl)-6-morpholinopyrimidine-2,4-diamine] | 100 to 1000 | 100 to 1000
